The subject of the assay is male CD1 mice. The assay is described as follows: In vivo predictive sedation-hypnosis test (traveled distance). The settings on record: Mus musculus, ip, 0.5 h, traveled distance over 30 min versus control, read-out: % inhib motor activity; for inhibition in vivo at 0.98 µmol/kg: 0.98 μmol/kg intraperitoneal; for inhibition in vivo at 98 µmol/kg: 98.0 μmol/kg intraperitoneal. As for the experimental part: b) In Vivo Determination of Predictive Sedative-hypnotic Action
The in vivo effects of these compounds were assessed by a predictive sedation-hypnosis test in mice (D. J. Sanger et al., Eur. J. Pharmacol., 313, 35-42, 1996; and G. Griebel et al., Psychopharmacology, 146, 205-213, 1999).
Groups of 5-8 male CD1 mice, weighing 22-26 g at the time of test, were used. […] Compounds were suspended in 0.25% agar with one drop of Tween in a volume of 10 mL/kg. Control animals were given the vehicle alone. Using a Smart System (Panlab, S. L., Spain) the traveled distance in cm is recorded for each mouse at 5-minutes intervals during a period of 30 minutes after dosing. The inhibition percentage of traveled distance of treated animals versus control animals (the first 5 minutes were discarded) was calculated.

In the case of `CCN(CC)C(=O)Cc1c(-c2ccc(C)cc2)nc2ccc(Cl)nn12` [Example 1, 2-(6-Chloro-2-p-tolyl-imidazo[1,2-b]pyridazin-3-yl)-N,N-diethyl-acetamide], the inhibition in vivo at 0.98 µmol/kg was 27.6% and the inhibition in vivo at 98 µmol/kg was 94.7%.

Turning to `Cc1ccc(-c2nc3ccc(Cl)nn3c2CC(=O)N2CCCCC2)cc1` [Example 4, 2-(6-Chloro-2-p-tolyl-imidazo[1,2-b]pyridazin-3-yl)-1-piperidin-1-yl-ethanone], the inhibition in vivo at 0.98 µmol/kg was 38.4% and the inhibition in vivo at 98 µmol/kg is 94.7%.

Turning to `Cc1ccc(-c2nc3ccc(Cl)nn3c2CC(=O)N2CCOCC2)cc1` [Example 5, 2-(6-Chloro-2-p-tolyl-imidazo[1,2-b]pyridazin-3-yl)-1-morpholin-4-yl-ethanone], the inhibition in vivo at 0.98 µmol/kg was 41.1% and the inhibition in vivo at 98 µmol/kg is 93.7%.

Take `Cc1ccc(-c2nc3ccc(Cl)nn3c2CC(=O)N2CCCC2)cc1` [Example 6, 2-(6-Chloro-2-p-tolyl-imidazo[1,2-b]pyridazin-3-yl)-1-pyrrolidin-1-yl-ethanone]: the inhibition in vivo at 0.98 µmol/kg is 51.9% and the inhibition in vivo at 98 µmol/kg was 96.9%.

For `CCOc1ccc2nc(-c3ccc(Br)cc3)c(CC(=O)N3CCOCC3)n2n1` [Example 9, 2-[2-(4-Bromo-phenyl)-6-ethoxy-imidazo[1,2-b]pyridazin-3-yl]-1-morpholin-4-yl-ethanone], the inhibition in vivo at 0.98 µmol/kg is 19.9% and the inhibition in vivo at 98 µmol/kg is 93.8%.

`CCOc1ccc2nc(-c3ccc(Br)cc3)c(CC(=O)N3CCCCC3)n2n1` [Example 10, 2-[2-(4-Bromo-phenyl)-6-ethoxy-imidazo[1,2-b]pyridazin-3-yl]-1-piperidin-1-yl-ethanone]: the inhibition in vivo at 0.98 µmol/kg is 29.5% and the inhibition in vivo at 98 µmol/kg was 93.5%.

Take `CCCCN(CCCC)C(=O)Cc1c(-c2ccc(Br)cc2)nc2ccc(OCC)nn12` [Example 11, 2-[2-(4-Bromo-phenyl)-6-ethoxy-imidazo[1,2-b]pyridazin-3-yl]-N,N-dibutyl-acetamide]: the inhibition in vivo at 0.98 µmol/kg was 15.3% and the inhibition in vivo at 98 µmol/kg is 79.8%.

Consider `CCCN(CCC)C(=O)Cc1c(-c2ccc(Br)cc2)nc2ccc(OCC)nn12` [Example 12, 2-[2-(4-Bromo-phenyl)-6-ethoxy-imidazo[1,2-b]pyridazin-3-yl]-N,N-dipropyl-acetamide], for which the inhibition in vivo at 0.98 µmol/kg was 15.1% and the inhibition in vivo at 98 µmol/kg is 83.4%.

For `CCOc1ccc2nc(-c3ccc(Br)cc3)c(CC(=O)N(CC)CC)n2n1` [Example 13, 2-[2-(4-Bromo-phenyl)-6-ethoxy-imidazo[1,2-b]pyridazin-3-yl]-N,N-diethyl-acetamide], the inhibition in vivo at 0.98 µmol/kg is 15.1% and the inhibition in vivo at 98 µmol/kg is 92.1%.

As to `Cc1ccc2nc(-c3ccc(Br)cc3)c(CC(=O)N3CCOCC3)n2n1` [Example 14, 2-[2-(4-Bromo-phenyl)-6-methyl-imidazo[1,2-b]pyridazin-3-yl]-1-morpholin-4-yl-ethanone], the inhibition in vivo at 0.98 µmol/kg is 4.77% and the inhibition in vivo at 98 µmol/kg is 95.6%.

For `CCCN(CCC)C(=O)Cc1c(-c2ccc(Br)cc2)nc2ccc(C)nn12` [Example 17, 2-[2-(4-Bromo-phenyl)-6-methyl-imidazo[1,2-b]pyridazin-3-yl]-N,N-dipropyl-acetamide], the inhibition in vivo at 0.98 µmol/kg is 9.91% and the inhibition in vivo at 98 µmol/kg was 93.1%.

Take `CCOc1ccc2nc(-c3ccc(Cl)cc3)c(CC(=O)N(CC)CC)n2n1` [Example 20, 2-[2-(4-Chloro-phenyl)-6-ethoxy-imidazo[1,2-b]pyridazin-3-yl]-N,N-diethyl-acetamide]: the inhibition in vivo at 98 µmol/kg was 91.5%.

Consider `CCCCN(CCCC)C(=O)Cc1c(-c2ccc(Cl)cc2)nc2ccc(C)nn12` [Example 22, N,N-Dibutyl-2-[2-(4-chloro-phenyl)-6-methyl-imidazo[1,2-b]pyridazin-3-yl]-acetamide], for which the inhibition in vivo at 0.98 µmol/kg was 22.2% and the inhibition in vivo at 98 µmol/kg is 88%.

With `CCCN(CCC)C(=O)Cc1c(-c2ccc(Cl)cc2)nc2ccc(OCC)nn12` [Example 23, 2-[2-(4-Chloro-phenyl)-6-ethoxy-imidazo[1,2-b]pyridazin-3-yl]-N,N-dipropyl-acetamide], the inhibition in vivo at 0.98 µmol/kg is 12.4% and the inhibition in vivo at 98 µmol/kg was 91.7%.

As for `CCCCN(CCCC)C(=O)Cc1c(-c2ccc(Cl)cc2)nc2ccc(OCC)nn12` [Example 24, N,N-Dibutyl-2-[2-(4-chloro-phenyl)-6-ethoxy-imidazo[1,2-b]pyridazin-3-yl]-acetamide], the inhibition in vivo at 0.98 µmol/kg is 3.65% and the inhibition in vivo at 98 µmol/kg is 86.5%.

For `CCCCN(CCCC)C(=O)Cc1c(-c2ccc(F)cc2)nc2ccc(C)nn12` [Example 40, N,N-Dibutyl-2-[2-(4-fluoro-phenyl)-6-methyl-imidazo[1,2-b]pyridazin-3-yl]-acetamide], the inhibition in vivo at 98 µmol/kg is 91.8%.

On to `CCCCN(CCCC)C(=O)Cc1c(-c2ccc(F)cc2)nc2ccc(OC)nn12` [Example 42, N,N-Dibutyl-2-[2-(4-fluoro-phenyl)-6-methoxy-imidazo[1,2-b]pyridazin-3-yl]-acetamide], for which the inhibition in vivo at 98 µmol/kg was 91%.

As for `CCCCN(CCCC)C(=O)Cc1c(-c2ccc(OC)cc2)nc2ccc(C)nn12` [Example 72, N,N-Dibutyl-2-[2-(4-methoxy-phenyl)-6-methyl-imidazo[1,2-b]pyridazin-3-yl]-acetamide], the inhibition in vivo at 98 µmol/kg was 93.3%.

With `CCCCN(CCCC)C(=O)Cc1c(-c2ccc(OC)cc2)nc2ccc(OC)nn12` [Example 77, N,N-Dibutyl-2-[6-methoxy-2-(4-methoxy-phenyl)-imidazo[1,2-b]pyridazin-3-yl]-acetamide], the inhibition in vivo at 98 µmol/kg is 89.3%.

`CCCN(CCOC(C)=O)C(=O)Cc1c(-c2ccc(C)cc2)nc2ccc(C)nn12` [Example 80, Acetic acid 2-{[2-(6-methyl-2-p-tolyl-imidazo[1,2-b]pyridazin-3-yl)-acetyl]-propyl-amino}-ethyl ester]: the inhibition in vivo at 98 µmol/kg was 94.4%.

As for `Cc1ccc(-c2nc3ccc(C)nn3c2CC(=O)N2CC(C)CC(C)C2)cc1` (stereo not shown) [Example 81, 1-(3,5-Dimethyl-piperidin-1-yl)-2-(6-methyl-2-p-tolyl-imidazo[1,2-b]pyridazin-3-yl)-ethanone], the inhibition in vivo at 98 µmol/kg was 90.8%.

Take `Cc1ccc2nc(-c3ccc(Br)cc3)c(CC(=O)NN)n2n1` [Example 100, [2-(4-Bromo-phenyl)-6-methyl-imidazo[1,2-b]pyridazin-3-yl]-acetic acid hydrazide]: the inhibition in vivo at 98 µmol/kg was 93.7%.

Consider `Cc1ccc2nc(-c3ccc(Cl)cc3)c(CC(=O)NN)n2n1` [Example 102, [2-(4-Chloro-phenyl)-6-methyl-imidazo[1,2-b]pyridazin-3-yl]-acetic acid hydrazide], for which the inhibition in vivo at 98 µmol/kg is 85.5%.
